Substitutions are numbered along the chain they refer to.
Legend:
[1] = biological target: T1, XtTPC3 (TPC3 from Xenopus tropicalis) (Xenopus tropicalis, UniProt A0A6I8S6D1, R187Q/D511C); experiment: two-electrode voltage clamp, Cys-accessibility (activation rate); format: cell-based; details: covalent at introduced Cys511; 0.5 mM MTSES in ND-96, pH 7.4, room temperature; +135 mV pulses; PI(3,4)P2 present (after long depolarization); Xenopus oocytes
T1 construct: gene LOC100495031; full-length cDNA in pGEMHE, Xenopus laevis oocytes (cRNA); pCXN2 in HEK293T for gating charges; homodimer
T1 sequence (A0A6I8S6D1 1-779 R187Q/D511C): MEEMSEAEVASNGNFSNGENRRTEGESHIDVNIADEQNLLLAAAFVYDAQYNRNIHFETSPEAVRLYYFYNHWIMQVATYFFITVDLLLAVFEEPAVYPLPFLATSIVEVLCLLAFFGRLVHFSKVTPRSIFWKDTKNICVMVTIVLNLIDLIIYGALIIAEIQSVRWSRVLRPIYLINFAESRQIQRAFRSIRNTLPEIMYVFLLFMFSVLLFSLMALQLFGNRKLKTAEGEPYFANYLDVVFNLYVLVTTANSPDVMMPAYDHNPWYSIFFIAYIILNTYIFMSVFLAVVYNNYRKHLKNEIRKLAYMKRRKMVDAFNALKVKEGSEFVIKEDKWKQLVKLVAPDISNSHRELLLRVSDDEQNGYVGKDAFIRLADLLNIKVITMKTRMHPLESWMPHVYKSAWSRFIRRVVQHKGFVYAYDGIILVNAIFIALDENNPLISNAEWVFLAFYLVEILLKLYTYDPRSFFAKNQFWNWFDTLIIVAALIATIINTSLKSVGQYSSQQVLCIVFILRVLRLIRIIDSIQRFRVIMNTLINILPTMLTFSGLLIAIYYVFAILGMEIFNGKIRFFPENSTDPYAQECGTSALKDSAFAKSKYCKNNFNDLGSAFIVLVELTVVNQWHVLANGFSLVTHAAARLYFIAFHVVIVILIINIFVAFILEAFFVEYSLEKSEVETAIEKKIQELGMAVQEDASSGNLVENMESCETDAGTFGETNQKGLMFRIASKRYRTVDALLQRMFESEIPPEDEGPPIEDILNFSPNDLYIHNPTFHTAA

[2] = biological target: T2, XtTPC3 (TPC3 from Xenopus tropicalis) (Xenopus tropicalis, UniProt A0A6I8S6D1, D511C); experiment: as above; format: cell-based; details: covalent at introduced Cys511; 0.5 mM MTSES in ND-96, pH 7.4, room temperature; +135 mV pulses; PI(3,4)P2 present (after long depolarization); Xenopus oocytes
T2 construct: gene LOC100495031; full-length cDNA in pGEMHE, Xenopus laevis oocytes (cRNA); pCXN2 in HEK293T for gating charges; homodimer
T2 sequence (A0A6I8S6D1 1-779 D511C): T1 sequence (A0A6I8S6D1 1-779 R187Q/D511C) with Q187R

MTSES-modification rate [1]: 0.011 ± 0.005 s⁻¹ | MTSES-modification rate [2]: 0.043 ± 0.014 s⁻¹
SMILES: CS(=O)(=O)SCCS(=O)(=O)O [MTSES]

— article PMC8665364, “Phosphoinositide regulates dynamic movement of the S4 voltage sensor in the second repeat in two-pore channel 3” (The Journal of Biological Chemistry, 2021)
